Measured values from ChEMBL document CHEMBL3817810, “Four new minor brominated indole related alkaloids with antibacterial activities from Laurencia similis” (2016).
≈ marks a conversion by molar mass, not a printed value.

Key:
Format in all cases: functional
Bacillus subtilis = experiment: Antibacterial activity against Bacillus subtilis by broth microdilution assay
Bacillus thuringiensis = experiment: Antibacterial activity against Bacillus thuringiensis by broth microdilution assay
Staphylococcus aureus = experiment: Antibacterial activity against Staphylococcus aureus by broth microdilution assay
[1] = tested on: Agrobacterium tumefaciens; experiment: Antibacterial activity against Agrobacterium tumefaciens by broth microdilution assay
[2] = tested on: Pseudomonas amygdali pv. lachrymans; experiment: Antibacterial activity against Pseudomonas lachrymans by broth microdilution assay
Ralstonia solanacearum = experiment: Antibacterial activity against Ralstonia solanacearum by broth microdilution assay
Xanthomonas vesicatoria = experiment: Antibacterial activity against Xanthomonas vesicatoria by broth microdilution assay

Compound | MIC (Bacillus subtilis) [µg/mL] | MIC (Bacillus thuringiensis) [µg/mL] | MIC (Staphylococcus aureus) [µg/mL] | MIC [1] [µg/mL] | MIC [2] [µg/mL] | MIC (Ralstonia solanacearum) [µg/mL] | MIC (Xanthomonas vesicatoria) [µg/mL]
Cc1cc(C)c2[nH]c3cc(Br)c(Br)cc3c2c1 | > 250 | > 250 | > 250 | > 250 | > 250 | > 250 | 50 (≈ 142 µM)
COC(=O)Nc1cc(Br)c(Br)cc1C(=O)OC | > 250 | > 250 | > 250 | > 250 | > 250 | > 250 | > 250
CC(C)=C1C(=O)N(O)c2cc(Br)c(Br)cc21 | 50 (≈ 144 µM) | 50 (≈ 144 µM) | 12.5 (≈ 36 µM) | 12.5 (≈ 36 µM) | 50 (≈ 144 µM) | 50 (≈ 144 µM) | > 250
Oc1ccc(Cc2c(Br)[nH]c3cc(Br)c(Br)cc23)cc1Br | 8 (≈ 14.8 µM) | 8 (≈ 14.8 µM) | 2 (≈ 3.71 µM) | 4 (≈ 7.42 µM) | 8 (≈ 14.8 µM) | 4 (≈ 7.42 µM) | 8 (≈ 14.8 µM)
CC1(C)S[C@@H]2[C@H](NC(=O)Cc3ccccc3)C(=O)N2[C@H]1C(=O)O [PENICILLIN G] | 0.125 (≈ 0.374 µM) | 64 (≈ 191 µM) | 0.25 (≈ 0.748 µM) | 250 (≈ 748 µM) | 250 (≈ 748 µM) | 250 (≈ 748 µM) | 250 (≈ 748 µM)
